Results as given in patent publication US8173694B2, “Therapeutic agent” (Pentraxin Therapeutics Limited, priority 2001, dated 2012).

Legend:
SAP = SAP binding to experimentally induced amyloid deposits in mice; assay type: in vivo, mouse; settings: compared with 1-(3-Mercapto-2-methyl-1-oxopropyl)-D-proline
Description: The potency of (R)-1-[6-(R)-2-Carboxy-pyrrolidin-1-yl]-6-oxo-hexanoyl]pyrrolidine-2-carboxylic acid in vivo was initially considered to be consistent with its lower IC50 value in vitro. However the decameric assembly of pentameric SAP molecules, induced by the cross linking capacity of the palindromic drug, is an abnormal molecular configuration which, according to the present invention, will be recognised in vivo and promptly cleared from the circulation. This action of the drug, leading to massive depletion of SAP from the plasma, makes a critical contribution to removal of SAP from the amyloid deposits because the SAP in amyloid is derived from, and in equilibrium with, the plasma SAP pool.

CRP in whole human serum = target: T1, CRP in whole human serum (Homo sapiens, UniProt P02741); assay: Size exclusion chromatography of whole human serum mixed with drug: CRP; assay type: binding
T1 construct: Aliquots of a single pool of whole normal human serum, containing SAP and CRP; from tissue; host or cells: pooled whole normal human serum
T1 sequence (P02741 19-224): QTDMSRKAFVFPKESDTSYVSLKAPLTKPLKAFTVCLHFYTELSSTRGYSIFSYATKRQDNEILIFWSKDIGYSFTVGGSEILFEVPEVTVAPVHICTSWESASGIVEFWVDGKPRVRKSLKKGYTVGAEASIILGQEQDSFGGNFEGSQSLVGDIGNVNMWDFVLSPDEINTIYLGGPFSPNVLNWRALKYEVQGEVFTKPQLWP
Method: Aliquots of a single pool of whole normal human serum, containing SAP and CRP, were mixed with (R)-1-[6-(R)-2-Carboxy-pyrrolidin-1-yl]-6-oxo-hexanoyl]pyrrolidine-2-carboxylic acid at the molar ratios shown, with respect to pentraxin protomer, and analysed by size exclusion chromatography precisely as described previously (14). The mixtures and the column eluants contained either no calcium ions or 2 mM calcium, and the concentrations of drug appropriate to maintain the molar ratios indicated above. SAP in whole serum is a stable soluble pentameric assembly of protomers, stabilised by the presence of the normal high concentration of serum albumin. However as SAP is separated from serum albumin during gel filtration with a calcium containing eluant, the SAP autoaggregates and elutes entirely as high molecular weight polymers in the void volume of the column. This is because, in the absence of a specific ligand to which it can bind, isolated human SAP is insoluble in the presence of calcium (14). However in the absence of calcium, where no ligand binding or autoaggregation can occur, SAP forms stable decamers, providing an excellent marker for the elution volume of this molecular assembly (14). Human CRP is a stable pentamer either in the presence or absence of calcium and thus provides a robust marker for the elution position of that molecular form (14).

[1] = drug:protein 1:1, calcium present
[2] = drug:protein 10:1, calcium present
[3] = drug:protein 100:1, calcium present

Elution volume (CRP in whole human serum; [1]): 12.0 to 12.5 mL
Molecular assembly (CRP in whole human serum; [1]): Pentamer
Elution volume (CRP in whole human serum; [2]): 12.0 to 12.5 mL
Molecular assembly (CRP in whole human serum; [2]): Pentamer
Elution volume (CRP in whole human serum; [3]): 12.0 to 12.5 mL
Molecular assembly (CRP in whole human serum; [3]): Pentamer
SMILES: O=C(O)[C@H]1CCCN1C(=O)CCCCC(=O)N1CCC[C@@H]1C(=O)O [(R)-1-[6-(R)-2-Carboxy-pyrrolidin-1-yl]-6-oxo-hexanoyl]pyrrolidine-2-carboxylic acid]
Activity in inhibiting SAP binding and dissociating SAP from deposits, relative to lead compound (SAP): more active
